The results in this text go back to US20230382925A1, “MODULATORS OF CYSTIC FIBROSIS TRANSMEMBRANE CONDUCTANCE REGULATOR” (VERTEX PHARMACEUTICALS INCORPORATED, priority 2020, published 2023).

In the test the target is CFTR (Homo sapiens, UniProt P13569). The experiment in a line: Membrane Potential Dye, Enteroid Assay B. It is filed as cell-based. A digest of the protocol:
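Human intestinal enteroid cells exposed to compound 18-24 h at 37 °C, then loaded with methyl oxonol membrane-potential dye plus CaCC blockers. Chloride transport triggered in chloride-free buffer with 10 μM forskolin, 100 μM IBMX, 300 nM Compound III; fluorescence read 15 min, expressed as % of triple-corrector/potentiator combination control.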

Setting [1] is: Table 10, read-out: Ent. B EC50.

Each structure is given as a SMILES string. Read-outs that look alike come from different tables or passages of the source. A value given as a limit tells only on which side of the number the result lay.

Sequence of CFTR (P13569 with tags, fused parts or gaps DEL508-508): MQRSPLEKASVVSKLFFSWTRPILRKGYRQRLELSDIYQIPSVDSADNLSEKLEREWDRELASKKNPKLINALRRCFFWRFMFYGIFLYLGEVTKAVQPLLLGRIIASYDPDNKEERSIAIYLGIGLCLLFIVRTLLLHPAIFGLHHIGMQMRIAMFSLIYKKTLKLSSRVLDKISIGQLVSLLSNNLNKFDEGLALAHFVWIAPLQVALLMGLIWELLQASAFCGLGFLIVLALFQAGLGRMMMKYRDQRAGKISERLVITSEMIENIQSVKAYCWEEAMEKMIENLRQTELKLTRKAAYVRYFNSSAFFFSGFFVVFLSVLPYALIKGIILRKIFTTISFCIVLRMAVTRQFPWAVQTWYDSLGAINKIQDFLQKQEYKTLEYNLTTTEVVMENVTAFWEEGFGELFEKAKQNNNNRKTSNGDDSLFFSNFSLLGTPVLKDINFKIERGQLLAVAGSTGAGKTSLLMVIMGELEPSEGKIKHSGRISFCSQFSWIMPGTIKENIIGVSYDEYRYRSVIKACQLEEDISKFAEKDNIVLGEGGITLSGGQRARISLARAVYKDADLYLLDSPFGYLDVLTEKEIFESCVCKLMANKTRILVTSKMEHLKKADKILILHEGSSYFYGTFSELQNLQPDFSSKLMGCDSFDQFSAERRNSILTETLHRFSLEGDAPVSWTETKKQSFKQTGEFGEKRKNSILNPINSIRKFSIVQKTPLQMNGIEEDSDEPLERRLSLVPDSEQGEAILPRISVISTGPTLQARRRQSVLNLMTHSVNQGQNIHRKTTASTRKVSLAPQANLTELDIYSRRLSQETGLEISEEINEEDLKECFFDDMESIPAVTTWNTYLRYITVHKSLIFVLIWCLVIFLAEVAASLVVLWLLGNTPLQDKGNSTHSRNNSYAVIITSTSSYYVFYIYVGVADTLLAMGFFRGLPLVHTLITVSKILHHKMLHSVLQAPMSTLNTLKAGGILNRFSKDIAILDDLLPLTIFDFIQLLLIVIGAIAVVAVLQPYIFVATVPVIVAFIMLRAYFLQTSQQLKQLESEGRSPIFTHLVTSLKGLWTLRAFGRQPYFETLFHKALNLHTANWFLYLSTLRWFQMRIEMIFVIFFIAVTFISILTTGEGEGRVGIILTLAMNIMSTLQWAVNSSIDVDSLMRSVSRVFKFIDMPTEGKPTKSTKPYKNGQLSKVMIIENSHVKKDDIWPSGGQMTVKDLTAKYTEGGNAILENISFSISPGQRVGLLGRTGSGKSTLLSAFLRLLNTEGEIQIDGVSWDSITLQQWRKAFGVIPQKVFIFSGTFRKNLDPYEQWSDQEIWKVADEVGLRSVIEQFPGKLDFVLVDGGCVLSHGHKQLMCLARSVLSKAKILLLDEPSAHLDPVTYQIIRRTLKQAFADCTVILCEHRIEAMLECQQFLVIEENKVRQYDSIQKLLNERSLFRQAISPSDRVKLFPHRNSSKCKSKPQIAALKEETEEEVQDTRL

In general, EC50 refers to the midpoint of the concentration-response curve. As to `Cc1cccc(C)c1-c1cc2nc(n1)NS(=O)(=O)c1cccc(n1)C(=O)N(C1CC3(C1)CC(C(C)(C)O)C3)[C@H](CC(C)(C)C)CO2` (single isomer, unassigned) [Compound 162], where the note is “Table 10”, the “Ent. B Max Activity (%)” value is recorded as “+++ (+++ is >60%)”. Moreover, the EC50 under setting [1] is below 1 µM.
For `Cc1cccc(C)c1-c1cc2nc(n1)NS(=O)(=O)c1cccc(c1)C(=O)N([C@H]1C[C@@H](C(C)(C)O)C1)[C@H](CC(C)(C)C)CO2` (single isomer, unassigned) [Compound 141] the same measures were “+++ (+++ is >60%)” and below 1 µM.
As for `CC(=O)N1CC2(CC(N3C(=O)c4cccc(c4)S(=O)(=O)Nc4nc(cc(-c5c(C)cccc5C)n4)OC[C@H]3CC3(C(F)(F)F)CC3)C2)C1` [Compound 452], the “Ent. B Max Activity (%)” value (Table 9) is recorded as “+++ (+++ is >60%)”. For the setting “Table 9, read-out: Ent. B EC50”, the EC50 is below 1 µM.
In the case of `CNC(=O)O[C@H]1C[C@@H](N2C(=O)c3cccc(c3)S(=O)(=O)Nc3nc(cc(-c4c(C)cccc4C)n3)OC[C@H]2CC(C)C)C1` (stereo in doubt) [Compound 361], the “Ent. B Max Activity (%)” value (Table 10) is on record as “++ (++ is 30-60%)”. Under setting [1], the EC50 is below 1 µM.
Turning to `Cc1cccc(C)c1-c1cc2nc(n1)NS(=O)(=O)c1cccc(c1)C(=O)N(C1CC3(CCN(CCOC4CC4)CC3)C1)[C@H](CC(C)C)CO2` [Compound 278], the “Ent. B Max Activity (%)” value (Table 9) is reported as “+++ (+++ is >60%)”. For the same compound, the EC50 (Table 9, read-out: Ent. B EC50) was below 1 µM.
In the same order, the values of `Cc1cccc(C)c1-c1cc2nc(n1)NS(=O)(=O)c1cccc(c1)C(=O)N([C@H]1C[C@@H](NC(=O)OC(C)(C)C)C1)[C@H](CC1(C(F)(F)F)CC1)CO2` (single isomer, unassigned) [Compound 55] are “+++ (+++ is >60%)” and below 1 µM.
Consider `COCCN1CCC2(CC1)CC(N1C(=O)c3cccc(c3)S(=O)(=O)Nc3nc(cc(-c4c(C)cccc4C)n3)OC[C@H]1CC1(C(F)(F)F)CC1)C2` [Compound 128, (11R)-6-(2,6-Dimethylphenyl)-12-[7-(2-methoxyethyl)-7-azaspiro[3.5]nonan-2-yl]-2,2-dioxo-11-[[1-(trifluoromethyl)cyclopropyl]methyl]-9-oxa-2λ^6-thia-3,5,12,19-tetrazatricyclo[12.3.1.14,8]nonadeca-1(18),4(19),5,7,14,16-hexaen-13-one], for which the “Ent. B Max Activity (%)” value is “+++ (+++ is >60%)”. Where the note is “read-out: Ent. B EC50”, the concentration for a half-maximal effect (EC50) is below 1 µM.
Take `COCCn1cc(N2C(=O)c3cccc(c3)S(=O)(=O)Nc3nc(cc(-c4c(C)cccc4C)n3)OC[C@H]2CC(C)(C)C)cn1` [Compound 225]: the “Ent. B Max Activity (%)” value (Table 10) is given as “+++ (+++ is >60%)”. The EC50 under setting [1] was below 1 µM.
For `Cc1cccc(C)c1-c1cc2nc(n1)NS(=O)(=O)c1cccc(c1)C(=O)N(C1CC3(C1)CC(C(C)(C)O)C3)[C@H](CCC(C)(C)C)CO2` (single isomer, unassigned) [Compound 8] the same measures were “+++ (+++ is >60%)” and below 1 µM.
For `Cc1cccc(C)c1-c1cc2nc(n1)NS(=O)(=O)c1cccc(c1)C(=O)N(C1CC(NC3CCC3)C1)[C@H](CC(C)C)CO2` (stereo partly shown) [Compound 375], the “Ent. B Max Activity (%)” value (Table 9) is “+++ (+++ is >60%)”. Moreover, the EC50 (Table 9, read-out: Ent. B EC50) is below 1 µM.
In the case of `CC(C)C[C@@H]1COc2cc(C3CCCCC3(C)C)nc(n2)NS(=O)(=O)c2cccc(c2)C(=O)N1C1CC2(CCN(C)CC2)C1` (stereo partly shown) [Compound 394], the “Ent. B Max Activity (%)” value is recorded as “+++ (+++ is >60%)”. Moreover, the EC50 (read-out: Ent. B EC50) is 1 to 3 µM.
On to `[H][C@]1(N2C(=O)c3cccc(c3)S(=O)(=O)Nc3nc(cc(-c4c(C)cccc4C)n3)OC[C@H]2CCC(C)C)C[C@@]2(C[C@H](C(C)(C)O)C2)C1` (single isomer, unassigned) [Compound 5], for which the “Ent. B Max Activity (%)” value (Table 10) was “+++ (+++ is >60%)”. Besides, the half-maximal effective concentration (EC50) under setting [1] is below 1 µM.
With `COC(=O)N[C@H]1C[C@@H](N2C(=O)c3cccc(c3)S(=O)(=O)Nc3nc(cc(-c4c(C)cccc4C)n3)OC[C@H]2CC(C)(C)C)C1` [Compound 472], for the setting “Table 9”, the “Ent. B Max Activity (%)” value is listed as “+++ (+++ is >60%)”. In addition, under “Table 9, read-out: Ent. B EC50”, the half-maximal effective concentration (EC50) is below 1 µM.
For the compound `Cc1cccc(C)c1-c1cc2nc(n1)NS(=O)(=O)c1cccc(c1)C(=O)N([C@H]1C[C@@H](NC34CC(CO)(C3)C4)C1)[C@H](CC(C)C)CO2` (stereo in doubt) [Compound 358], where the note is “Table 10”, the “Ent. B Max Activity (%)” value is reported as “+++ (+++ is >60%)”. Moreover, the 50% effective concentration (EC50) under setting [1] was below 1 µM.
`COC1CC(N2C(=O)c3cccc(c3)S(=O)(=O)Nc3nc(cc(-c4c(C)cccc4C)n3)OC[C@H]2CC(C)C)C1` (stereo partly shown) [Compound 467]: the “Ent. B Max Activity (%)” value is “+++ (+++ is >60%)”. Also, for the setting “read-out: Ent. B EC50”, the concentration giving a half-maximal response (EC50) was below 1 µM.
For `[H][C@]1(N2C(=O)c3cccc(c3)S(=O)(=O)Nc3nc(cc(-c4c(C)cccc4C)n3)OC[C@H]2CC2(C(F)(F)F)CC2)C[C@@]2(C[C@H](NC(=O)OC(C)C)C2)C1` (stereo partly drawn) [Compound 78, Isopropyl ((2S,4s,6S)-6-((R)-1^6-(2,6-dimethylphenyl)-3,3-dioxido-5-oxo-7-((1-(trifluoromethyl)cyclopropyl)methyl)-9-oxa-3-thia-2,6-diaza-1(2,4)-pyrimidina-4(1,3)-benzenacyclononaphane-6-yl)spiro[3.3]heptan-2-yl)carbamate] the same measures were “+++ (+++ is >60%)” and below 1 µM.
Take `Cc1cccc(C)c1-c1cc2nc(n1)NS(=O)(=O)c1cccc(c1)C(=O)N([C@H]1C[C@@H](C(C)(C)O)C1)[C@H](CC(C)(C)C)CO2` (single isomer, unassigned) [Compound 142]: the “Ent. B Max Activity (%)” value (Table 10) was “+++ (+++ is >60%)”. For the same compound, the EC50 under setting [1] is below 1 µM.
As for `COCCN(C)C(=O)C1CC(N2C(=O)c3cccc(c3)S(=O)(=O)Nc3nc(cc(-c4c(C)cccc4C)n3)OC[C@H]2CC(C)C)C1` (stereo partly shown) [Compound 306], the “Ent. B Max Activity (%)” value was “+++ (+++ is >60%)”. Also, the EC50 (read-out: Ent. B EC50) was below 1 µM.
Consider `COC(=O)NC1CC(N2C(=O)c3cccc(c3)S(=O)(=O)Nc3nc(cc(-c4c(C)cccc4C)n3)OC[C@H]2CC(C)(C)C(F)(F)F)C1` (stereo partly shown) [Compound 418], for which, where the note is “Table 9”, the “Ent. B Max Activity (%)” value is given as “+++ (+++ is >60%)”. Moreover, the 50% effective concentration (EC50) (Table 9, read-out: Ent. B EC50) is below 1 µM.
For `Cc1cccc(C)c1-c1cc2nc(n1)NS(=O)(=O)c1cccc(c1)C(=O)N(C1CC(NC(=O)OC(C)C)C1)[C@H](CC1(C(F)(F)F)CC1)CO2` (single isomer, unassigned) [Compound 59] the same measures were “+++ (+++ is >60%)” and below 1 µM.
In the same order, the values of `Cc1cccc(C)c1-c1cc2nc(n1)NS(=O)(=O)c1cccc(c1)C(=O)N(C1CC3(CC(NC(=O)OC(C)C)C3)C1)[C@H](CC(C)(C)C)CO2` (single isomer, unassigned) [Compound 93] are “+++ (+++ is >60%)” and below 1 µM.
Regarding `Cc1cccc(C)c1-c1cc2nc(n1)NS(=O)(=O)c1cccc(c1)C(=O)N([C@@H]1CC[C@@H]1C1CC1)[C@H](CC(C)(C)C)CO2` (single isomer, unassigned) [Compound 148], under “Table 10”, the “Ent. B Max Activity (%)” value is given as “+++ (+++ is >60%)”. The EC50 under setting [1] is below 1 µM.
Take `COC(=O)N[C@H]1CC2(C1)C[C@H](N1C(=O)c3cccc(c3)S(=O)(=O)Nc3nc(cc(-c4c(C)cccc4C)n3)OC[C@H]1CC(C)C)C2` (stereo partly shown) [Compound 305]: the “Ent. B Max Activity (%)” value was “+++ (+++ is >60%)”. In addition, the EC50 (read-out: Ent. B EC50) is below 1 µM.
